Laboratory results reported in patent US9604935B2, “Deuterated phenyl amino pyrimidine compound and pharmaceutical composition containing the same” (Suzhou Zelgen Biopharmaceuticals Co., Ltd., priority 2013, dated 2017).
Like-named read-outs stand apart in the source and are kept apart here. Values belong to the compound of their own block, whether it stands above or below them.

Assay: Pharmacokinetic evaluation in rats
Format: in vivo
Settings: male, Sprague-Dawley, rat, plasma, po, 3 mg/kg, 3 mg/kg by gavage
Procedure: 12 male Sprague-Dawley rats, 7-8 weeks old, of approximately 200 g body weight, were divided into three groups, four in each group.
Rats were feed with standard feed, and were given water, and were started to fast 16 hours before the test. The drug was dissolved in PEG400 and dimethylsulfoxide. Orbital blood collection was conducted, and the blood collection time is 0.25 hour, 0.5 hour, 1 hour, 2 hour, 4 hour, 6 hour, 8 hour, 12 hour, 24 hour, 36 hour and 48 hour after administration.
After inhalation of ether, the rats were shortly anesthesiaed; 300 μL of blood were collected from orbit into a test tube. There were 30 μL of 1% heparin saline solutions in the test tube. Before use, test tubes were dried overnight at 60° C. After the blood sample was collected in the subsequent time point, rats were anesthetized with ether and sacrificed.
After blood sampling, the tube was gently inverted at least 5 times immediately to ensure adequate mixing, and was placed on ice. Blood samples were 5000 rpm centrifuged at 4° C. for 5 minutes to separate the plasma and red blood cells. 100 μL of plasma was pipetted into a clean plastic centrifuge tube, and the name of compounds and the time point were indicated. Plasma was stored in −80° C. before use for the analysis. The concentration of the compound of the invention in plasma was determined with LC-MS/MS. The pharmacokinetic parameters were calculated based on the blood drug concentration of each animal at different time points.

[1] = group G3, Mean of 4 rats, read-out: AUCINF_obs
[2] = group G3, rat 9, read-out: AUCINF_obs
[3] = group G3, rat 10, read-out: AUCINF_obs
[4] = group G3, rat 11, read-out: AUCINF_obs
[5] = group G3, rat 12, read-out: AUCINF_obs
[6] = group G2, Mean of 4 rats, read-out: AUCINF_obs
[7] = group G2, rat 5, read-out: AUCINF_obs
[8] = group G2, rat 6, read-out: AUCINF_obs
[9] = group G2, rat 7, read-out: AUCINF_obs
[10] = group G2, rat 8, read-out: AUCINF_obs
[11] = group G1, Mean of 4 rats, read-out: AUCINF_obs
[12] = group G1, rat 1, read-out: AUCINF_obs
[13] = group G1, rat 2, read-out: AUCINF_obs
[14] = group G1, rat 3, read-out: AUCINF_obs
[15] = group G1, rat 4, read-out: AUCINF_obs

SMILES: [2H]C1([2H])OC([2H])([2H])C([2H])([2H])N(c2ccc(Nc3nccc(-c4ccc(C(=O)NCC#N)cc4)n3)cc2)C1([2H])[2H] [example 1, N-(cyanomethyl)-4-(2-(4-(d8-morpholino)phenylamino)pyrimidine-4-yl)benzamide]
AUC(0-t) (group G3 (Table 3), mean±SD): 3960 ± 1480 ng·h/mL | Cmax (group G3 (Table 3), mean±SD): 653 ± 275 ng/mL | AUC(0-t) (group G3, Mean of 4 rats): 3960 ng·h/mL | Cmax (group G3, Mean of 4 rats): 653 ng/mL | Tmax (group G3, Mean of 4 rats): 3.5 h | AUC(0-inf) [1]: 4060 ng·h/mL | AUC(0-t) (group G3, rat 9): 6170 ng·h/mL | Cmax (group G3, rat 9): 1060 ng/mL | Tmax (group G3, rat 9): 4 h | AUC(0-inf) [2]: 6300 ng·h/mL | AUC(0-t) (group G3, rat 10): 3250 ng·h/mL | Cmax (group G3, rat 10): 596 ng/mL | Tmax (group G3, rat 10): 4 h | AUC(0-inf) [3]: 3370 ng·h/mL | AUC(0-t) (group G3, rat 11): 3160 ng·h/mL | Cmax (group G3, rat 11): 476 ng/mL | Tmax (group G3, rat 11): 2 h | AUC(0-inf) [4]: 3250 ng·h/mL | AUC(0-t) (group G3, rat 12): 3240 ng·h/mL | Cmax (group G3, rat 12): 483 ng/mL | Tmax (group G3, rat 12): 4 h | AUC(0-inf) [5]: 3320 ng·h/mL

SMILES: [2H]C1([2H])COCC([2H])([2H])N1c1ccc(Nc2nccc(-c3ccc(C(=O)NCC#N)cc3)n2)cc1 [example 5, N-(cyanomethyl)-4-(2-(4-(2′,2′,6′,6′-d4-morpholino)phenylamino)pyrimidin-4-yl)benzamide]
AUC(0-t) (group G2 (Table 2), mean±SD): 5390 ± 1230 ng·h/mL | Cmax (group G2 (Table 2), mean±SD): 972 ± 307 ng/mL | AUC(0-t) (group G2, Mean of 4 rats): 5390 ng·h/mL | Cmax (group G2, Mean of 4 rats): 972 ng/mL | Tmax (group G2, Mean of 4 rats): 3.5 h | AUC(0-inf) [6]: 5440 ng·h/mL | AUC(0-t) (group G2, rat 5): 6820 ng·h/mL | Cmax (group G2, rat 5): 1410 ng/mL | Tmax (group G2, rat 5): 2 h | AUC(0-inf) [7]: 6850 ng·h/mL | AUC(0-t) (group G2, rat 6): 5460 ng·h/mL | Cmax (group G2, rat 6): 922 ng/mL | Tmax (group G2, rat 6): 4 h | AUC(0-inf) [8]: 5490 ng·h/mL | AUC(0-t) (group G2, rat 7): 5470 ng·h/mL | Cmax (group G2, rat 7): 875 ng/mL | Tmax (group G2, rat 7): 4 h | AUC(0-inf) [9]: 5520 ng·h/mL | AUC(0-t) (group G2, rat 8): 3810 ng·h/mL | Cmax (group G2, rat 8): 686 ng/mL | Tmax (group G2, rat 8): 4 h | AUC(0-inf) [10]: 3900 ng·h/mL

SMILES: [2H]C([2H])(C#N)NC(=O)c1ccc(-c2ccnc(Nc3ccc(N4CCOCC4)cc3)n2)cc1 [example 8, N-(cyano(d2-methyl))-4-(2-(4-morpholinophenylamino)pyrimidin-4-yl)benzamide]
AUC(0-t) (group G1 (Table 1), mean±SD): 2090 ± 1220 ng·h/mL | Cmax (group G1 (Table 1), mean±SD): 309 ± 175 ng/mL | AUC(0-t) (group G1, Mean of 4 rats): 2090 ng·h/mL | Cmax (group G1, Mean of 4 rats): 309 ng/mL | Tmax (group G1, Mean of 4 rats): 2.56 h | AUC(0-inf) [11]: 2120 ng·h/mL | AUC(0-t) (group G1, rat 1): 3090 ng·h/mL | Cmax (group G1, rat 1): 469 ng/mL | Tmax (group G1, rat 1): 0.25 h | AUC(0-inf) [12]: 3100 ng·h/mL | AUC(0-t) (group G1, rat 2): 574 ng·h/mL | Cmax (group G1, rat 2): 101 ng/mL | Tmax (group G1, rat 2): 4 h | AUC(0-inf) [13]: 616 ng·h/mL | AUC(0-t) (group G1, rat 3): 3050 ng·h/mL | Cmax (group G1, rat 3): 438 ng/mL | Tmax (group G1, rat 3): 4 h | AUC(0-inf) [14]: 3130 ng·h/mL | AUC(0-t) (group G1, rat 4): 1630 ng·h/mL | Cmax (group G1, rat 4): 227 ng/mL | Tmax (group G1, rat 4): 2 h | AUC(0-inf) [15]: 1640 ng·h/mL

SMILES: N#CCNC(=O)c1ccc(-c2ccnc(Nc3ccc(N4CCOCC4)cc3)n2)cc1 [example 9, N-(cyanomethyl)-4-(2-(4-morpholinophenylamino)pyrimidin-4-yl)benzamide, reference compound]
AUC(0-t) (group G1 (Table 1), mean±SD): 1620 ± 932 ng·h/mL | Cmax (group G1 (Table 1), mean±SD): 245 ± 140 ng/mL | AUC(0-t) (group G1, Mean of 4 rats): 1620 ng·h/mL | Cmax (group G1, Mean of 4 rats): 245 ng/mL | Tmax (group G1, Mean of 4 rats): 2.56 h | AUC(0-inf) [11]: 1650 ng·h/mL | AUC(0-t) (group G1, rat 1): 2290 ng·h/mL | Cmax (group G1, rat 1): 368 ng/mL | Tmax (group G1, rat 1): 0.25 h | AUC(0-inf) [12]: 2300 ng·h/mL | AUC(0-t) (group G1, rat 2): 443 ng·h/mL | Cmax (group G1, rat 2): 79.4 ng/mL | Tmax (group G1, rat 2): 4 h | AUC(0-inf) [13]: 480 ng·h/mL | AUC(0-t) (group G1, rat 3): 2440 ng·h/mL | Cmax (group G1, rat 3): 354 ng/mL | Tmax (group G1, rat 3): 4 h | AUC(0-inf) [14]: 2510 ng·h/mL | AUC(0-t) (group G1, rat 4): 1320 ng·h/mL | Cmax (group G1, rat 4): 180 ng/mL | Tmax (group G1, rat 4): 2 h | AUC(0-inf) [15]: 1330 ng·h/mL | AUC(0-t) (group G2 (Table 2), mean±SD): 3210 ± 744 ng·h/mL | Cmax (group G2 (Table 2), mean±SD): 589 ± 190 ng/mL | AUC(0-t) (group G2, Mean of 4 rats): 3210 ng·h/mL | Cmax (group G2, Mean of 4 rats): 589 ng/mL | Tmax (group G2, Mean of 4 rats): 3.5 h | AUC(0-inf) [6]: 3240 ng·h/mL | AUC(0-t) (group G2, rat 5): 4080 ng·h/mL | Cmax (group G2, rat 5): 858 ng/mL | Tmax (group G2, rat 5): 2 h | AUC(0-inf) [7]: 4110 ng·h/mL | AUC(0-t) (group G2, rat 6): 3320 ng·h/mL | Cmax (group G2, rat 6): 567 ng/mL | Tmax (group G2, rat 6): 4 h | AUC(0-inf) [8]: 3340 ng·h/mL | AUC(0-t) (group G2, rat 7): 3180 ng·h/mL | Cmax (group G2, rat 7): 514 ng/mL | Tmax (group G2, rat 7): 4 h | AUC(0-inf) [9]: 3210 ng·h/mL | AUC(0-t) (group G2, rat 8): 2270 ng·h/mL | Cmax (group G2, rat 8): 415 ng/mL | Tmax (group G2, rat 8): 4 h | AUC(0-inf) [10]: 2300 ng·h/mL | AUC(0-t) (group G3 (Table 3), mean±SD): 2190 ± 814 ng·h/mL | Cmax (group G3 (Table 3), mean±SD): 365 ± 146 ng/mL | AUC(0-t) (group G3, Mean of 4 rats): 2190 ng·h/mL | Cmax (group G3, Mean of 4 rats): 365 ng/mL | Tmax (group G3, Mean of 4 rats): 3.5 h | AUC(0-inf) [1]: 2240 ng·h/mL | AUC(0-t) (group G3, rat 9): 3420 ng·h/mL | Cmax (group G3, rat 9): 579 ng/mL | Tmax (group G3, rat 9): 4 h | AUC(0-inf) [2]: 3480 ng·h/mL | AUC(0-t) (group G3, rat 10): 1800 ng·h/mL | Cmax (group G3, rat 10): 336 ng/mL | Tmax (group G3, rat 10): 4 h | AUC(0-inf) [3]: 1850 ng·h/mL | AUC(0-t) (group G3, rat 11): 1750 ng·h/mL | Cmax (group G3, rat 11): 276 ng/mL | Tmax (group G3, rat 11): 2 h | AUC(0-inf) [4]: 1800 ng·h/mL | AUC(0-t) (group G3, rat 12): 1810 ng·h/mL | Cmax (group G3, rat 12): 270 ng/mL | Tmax (group G3, rat 12): 4 h | AUC(0-inf) [5]: 1840 ng·h/mL

Further lines, results first:

AUC(0-t) (group G3 (Table 3), mean±SD): 2720 ± 922 ng·h/mL | Cmax (group G3 (Table 3), mean±SD): 447 ± 170 ng/mL | AUC(0-t) (group G3, Mean of 4 rats): 2720 ng·h/mL | Cmax (group G3, Mean of 4 rats): 447 ng/mL | Tmax (group G3, Mean of 4 rats): 3.5 h | AUC(0-inf) [1]: 2790 ng·h/mL | AUC(0-t) (group G3, rat 9): 4100 ng·h/mL | Cmax (group G3, rat 9): 694 ng/mL | Tmax (group G3, rat 9): 4 h | AUC(0-inf) [2]: 4180 ng·h/mL | AUC(0-t) (group G3, rat 10): 2300 ng·h/mL | Cmax (group G3, rat 10): 419 ng/mL | Tmax (group G3, rat 10): 4 h | AUC(0-inf) [3]: 2350 ng·h/mL | AUC(0-t) (group G3, rat 11): 2190 ng·h/mL | Cmax (group G3, rat 11): 329 ng/mL | Tmax (group G3, rat 11): 2 h | AUC(0-inf) [4]: 2260 ng·h/mL | AUC(0-t) (group G3, rat 12): 2290 ng·h/mL | Cmax (group G3, rat 12): 344 ng/mL | Tmax (group G3, rat 12): 4 h | AUC(0-inf) [5]: 2350 ng·h/mL
SMILES: [2H]C([2H])(C#N)NC(=O)c1ccc(-c2ccnc(Nc3ccc(N4C([2H])([2H])C([2H])([2H])OC([2H])([2H])C4([2H])[2H])cc3)n2)cc1 [example 3, N-(cyano(d2-methyl))-4-(2-(4-(d8-morpholino)phenylamino)pyrimidin-4-yl)benzamide]

AUC(0-t) (group G1 (Table 1), mean±SD): 1900 ± 1100 ng·h/mL | Cmax (group G1 (Table 1), mean±SD): 282 ± 158 ng/mL | AUC(0-t) (group G1, Mean of 4 rats): 1900 ng·h/mL | Cmax (group G1, Mean of 4 rats): 282 ng/mL | Tmax (group G1, Mean of 4 rats): 2.56 h | AUC(0-inf) [11]: 1940 ng·h/mL | AUC(0-t) (group G1, rat 1): 2730 ng·h/mL | Cmax (group G1, rat 1): 423 ng/mL | Tmax (group G1, rat 1): 0.25 h | AUC(0-inf) [12]: 2740 ng·h/mL | AUC(0-t) (group G1, rat 2): 514 ng·h/mL | Cmax (group G1, rat 2): 94.6 ng/mL | Tmax (group G1, rat 2): 4 h | AUC(0-inf) [13]: 561 ng·h/mL | AUC(0-t) (group G1, rat 3): 2840 ng·h/mL | Cmax (group G1, rat 3): 403 ng/mL | Tmax (group G1, rat 3): 4 h | AUC(0-inf) [14]: 2920 ng·h/mL | AUC(0-t) (group G1, rat 4): 1520 ng·h/mL | Cmax (group G1, rat 4): 207 ng/mL | Tmax (group G1, rat 4): 2 h | AUC(0-inf) [15]: 1530 ng·h/mL
SMILES: [2H]C([2H])(C#N)NC(=O)c1ccc(-c2ccnc(Nc3ccc(N4CC([2H])([2H])OC([2H])([2H])C4)cc3)n2)cc1 [example 6]
